Assay results: patent publication US20060142326A1, “Use of pyrazolopyridines for the treatment of cognitive deficits” (priority 2003, published 2006)

Tests used:
cortical neurons [1] = test: Toxicity induced by kainate on cortical neurons, MTT test; type: cell-based, Wistar rat; details: 50 μM kainate, six hours
Method: (§1) 16 day old Wistar rat embryos are taken and the cortexes dissected. Following trypsination at 37° C. for 25 minutes, the cells are dissociated by trituration. The cells are sown in minimum essential medium, supplemented with 10% horse serum and 10% foetal calf serum and 2 mM glutamine, at a density of 300,000 cells per cm^2. After 4 days in culture half of the medium is changed with minimum essential medium supplemented with 5% horse serum and 2 mM glutamine. […] After seven and eleven days of culture, half of the medium is changed with conditioned medium. The conditioned medium is made up from MEM containing 5% horse serum and 2 mM glutamine; this medium is passed over a carpet of cortical astrocytes for a night before being used. On day 14, the cells are treated with the etazolate inhibitor compound, before adding toxics, 50 μM kainate or 20 μM N-methyl-D-aspartate in the presence of 10 μM D-serine. All of the treatments are carried out at least in duplicate and in at least two different cultures. Following an incubation of six hours the toxicity is measured by an MTT test. The results, standardised to the untreated average, are statistically analysed by the Wilcoxon test. The significant value is established at ρ less than or equal to 0.05. Toxicity is measured using the MTT test. […] The absorbance at 550 nm is read and the viability percentage is calculated.

[2] = tested on: granular cells of the cerebellum; test: Toxicity induced by NMDA/serine on granular cells of the cerebellum, MTT test; type: cell-based, Wistar rat; details: 100 μM NMDA + 10 μM D-serine, six hours
Method: (§2) Seven day old Wistar rats are decapitated and their cerebella are dissected. After having removed the meninges, the tissue is cut into small pieces and trypsinised for 15 minutes at 37° C. The cells are disassociated by trituration and placed in cultures at a density of 300,000 cells per cm^2 in Eagle's base medium supplemented with 10% foetal calf serum and 2 mM glutamine. The following day 10 μM ARA-C, an antimitotic, is added so as to prevent proliferation of the glial cells. The cells are treated for 9 days after placing in culture with the etazolate inhibiting compound, before adding toxics, 50 μM kainate or 100 μM N-methyl-D-aspartate in the presence of 10 μM D-serine. 8-bromo-cAMP is added just before the toxics. All of the treatments are carried out at least in duplicate and in at least two different cultures. Following an incubation of six hours, the toxicity is measured by an MTT test. The results, standardised to the untreated average, are statistically analysed by the Wilcoxon test. The significant value is established at p less than or equal to 0.05. Toxicity is measured using the MTT test. Following incubation with the compounds, MTT is added at a final concentration of 0.5 mg/ml per well. The plaques are then incubated for 30 minutes at 37° C. in the dark. […] The absorbance at 550 nm is read and the viability percentage is calculated.

[3] = tested on: cerebral infarction in rats; test: Model of cerebral infarction in rats (occlusion of the internal carotide and medium arteries of the brain); type: in vivo; details: rat
Method: The in vivo protective effect of etazolate was evaluated in a model of cerebral infarction in rats. During this study, a cerebral infarction was brought about by an intracavity occlusion of the internal carotide and the medium arteries of the brain. A group of eight rats was treated with etazolate (10 mg/kg, p.o.) before and several times after occlusion. A group of eight rats was treated with the reference compound, L-NAME (1 mg/kg, i.p.) before and several times after occlusion. A group of eight rats was only treated with the vehicle. The effects were evaluated by clinical observations, neurological function tests and by establishing the size of the infarction at the end of the study.

[4] = Single increasing oral dose study in healthy volunteers (tolerance, plasmatic dosage); type: in vivo, human
Method: In this study, single, increasing doses of etazolate (0.5, 1, 2, 5, 10 and 20 mg) were administered orally in the form of capsules dosed at 0.5 and 5 mg to different and sequential groups of eight young, healthy, volunteer subjects of the male sex. This study was carried out in just one centre, double-blind, and two of the eight subjects were given a placebo. The parameters evaluated were clinical (appearance of adverse effects, of clinical signs, change in arterial pressure or heart rate), electrocardiographic (ECG recording) and biological tolerance (hematology and sanguineous biochemistry, urinary examination) for the 24 hrs following administration of the product. A plasmatic dosage of the product was carried out in each subject at different times before and after administration of the product (0.25-0.50-1.00-1.50-2.00-3.00-4.00-5.00-6.00-8.00-10.00-12.00 and 24.00 hours). A urinary dosage of the product was also carried out from urines collected before and after administration of the product (4, 4-8, 8-12 and 12-24 hours).

SH-SY5Y cells = test: Toxicity induced by 6-hydroxydopamine (oxidative stress) on SH-SY5Y cells, MTT test; type: cell-based, human; details: 6-OHDA treatment
Method: In this example, cells from the SH-SY5Y line were placed in culture according to the techniques known to experts in the field. These cells, derived from a human neuroblast, have properties which characterise a neuronal precursor at a premature stage of development. The toxic used is 6-hydroxydopamine (6-OHDA) which induces oxidative stress. Toxicity is measured by an MTT test.

cortical neurons [5] = test: Toxicity induced by NMDA/serine on cortical neurons, MTT test; type: cell-based, Wistar rat; details: 20 μM NMDA + 10 μM D-serine, six hours
Method: as §1

[6] = tested on: granular cells of the cerebellum; test: Toxicity induced by kainate on granular cells of the cerebellum, MTT test; type: cell-based, Wistar rat; details: 50 μM kainate, six hours
Method: as §2

[7] = tested on: ventral spinal cord cells; test: Toxicity induced by NMDA/serine on ventral spinal cord cells, MTT test; type: cell-based, Wistar rat; details: 25 μM NMDA + 10 μM D-serine, 3 hours
Method: The cells are isolated from 14 day old Wistar rat embryos. Upon their arrival, the pregnant female rats are sacrificed by means of carbon dioxide. The series of embryos is taken and placed in a box containing PBS. The spinal cord of each embryo is dissected and the ventral cord is separated from the dorsal cords. The ventral cords are then trypsinised at 37° C. for 20 mins. The effect of the trypsin is halted by the addition of a medium made up from Leibovitz 15 medium, 20% horse serum, N2 (1×) supplement, 20% glucose (3.2 mg/ml), 7.5% bicarbonate (1.8 mg/ml) and L-glutamine (2 mM). The cells are dissociated by trituration. The accumulated tissue is removed and the dissociated cells are then quantified by dying with trypan blue. The cells sown at a density of 250 000 cells/cm^2 in a medium made up from neurobasal medium, horse serum (2%), B27 (1×) supplement, and glutamine (2 mM). After 3 days of in vitro culture, an anti-mitotic agent, ARA-C (5 μM), is added to the cells so as to inhibit production of glial cells. The cells are placed in culture at 37° C. in a humidified incubator (5% CO2) for 9 days. […] The results are standardised to the average of the untreated controls and analysed statistically by means of a Wilcoxon test with ρ less than 0.05. Toxicity is measured using the MTT test. […] The absorbance at 550 nm is read and the viability percentage is calculated.

old rats = test: Aquatic labyrinth test (Morris pool) in old rats; type: in vivo, rat
Excerpt: This test is used to evaluate the capacities to memorise and to manage spatial information in rats in an aversive situation. The task consists for the animal of locating with the help of distance indices a <<refuge >> platform, invisible by immersion in a tank filled with opacified water. The device makes it possible to evaluate the reference memory of the animal (the platform remains in the same place on each day of the test). This test makes it possible to appreciate the […] performances dependent upon the functions of the hippocampus of the animals tested. In particular, this test makes it possible to discriminate between the performances of adult rats (10 months) and those of old rats (30 months). The hippocampus is a cerebral structure the functions of which are altered prematurely in Alzheimer's disease. The Morris pool test is therefore particularly recognised by experts in the field as making it possible to appreciate the pharmacological properties of compounds intended to treat Alzheimer's disease and other diseases associated with a cognitive deficit. Old rats treated with etazolate (3 mg/kg and 10 mg/kg) administered orally and rats treated by the vehicle were used for this study. The performances of these animals in the Morris pool test were compared to those of a control group of adult rats.

For `CCOC(=O)c1cnc2c(cnn2CC)c1NN=C(C)C` [etazolate], the protective effect (cortical neurons [1]) was 40%, the protective effect [2] was 40% and the “neurological evaluation relative to the control group” value ([3]; 10 mg/kg p.o.) was “improvement”. For the same compound, the “reduction of the size of the infarction relative to the control” value ([3]; 10 mg/kg p.o. before and several times after occlusion, average) was 28%, the hypoactivity ([3]; 10 mg/kg p.o., control group 42%) was 31% and the secondary effects ([4]; healthy male volunteers, single oral doses 0.5-20 mg) was “did not involve any secondary effects”. The “tolerance (clinical, electrocardiographic, biological)” value ([4]; healthy male volunteers, single oral doses 0.5-20 mg, 24 hrs) was “well tolerated”, the “absorption (plasmatic dosages)” value ([4]; humans, oral capsules, at strong doses) was “good absorption” and the protective effect (SH-SY5Y cells) was 40%. The protective effect (cortical neurons [5]) was 47%, the protective effect [6] was 50% and the protective effect [7] was 36%. The “performances in the Morris pool test” value (old rats; 3 mg/kg orally) was “slightly improves the performances of old rats” and the “performances in the Morris pool test” value (old rats; 10 mg/kg orally, compared to adult rats) was “importantly brings the performances of old animals closer to those of adult animals”.
